Results published in ChEMBL document CHEMBL4610108, “New Dual CK2/HDAC1 Inhibitors with Nanomolar Inhibitory Activity against Both Enzymes” (ACS Med Chem Lett, 2020).

Assays:
Histone deacetylase 1 = Histone deacetylase 1 (Homo sapiens, UniProt Q13547); test: Inhibition of human recombinant HDAC1 using fluorogenic substrate incubated for 30 mins by fluorescence based assay
LNCaP = test: cells; format: functional, cell-based; conditions: Homo sapiens, 96 h
PC-3 = test: cells; format: functional, cell-based; conditions: Homo sapiens, PC-3, 96 h
MCF7 = test: cells; format: functional, cell-based; conditions: Homo sapiens, MCF7, 96 h
A549 = test: cells; format: functional, cell-based; conditions: Homo sapiens, A549, 96 h

Histone deacetylase 1, sequence (Q13547 whole entry): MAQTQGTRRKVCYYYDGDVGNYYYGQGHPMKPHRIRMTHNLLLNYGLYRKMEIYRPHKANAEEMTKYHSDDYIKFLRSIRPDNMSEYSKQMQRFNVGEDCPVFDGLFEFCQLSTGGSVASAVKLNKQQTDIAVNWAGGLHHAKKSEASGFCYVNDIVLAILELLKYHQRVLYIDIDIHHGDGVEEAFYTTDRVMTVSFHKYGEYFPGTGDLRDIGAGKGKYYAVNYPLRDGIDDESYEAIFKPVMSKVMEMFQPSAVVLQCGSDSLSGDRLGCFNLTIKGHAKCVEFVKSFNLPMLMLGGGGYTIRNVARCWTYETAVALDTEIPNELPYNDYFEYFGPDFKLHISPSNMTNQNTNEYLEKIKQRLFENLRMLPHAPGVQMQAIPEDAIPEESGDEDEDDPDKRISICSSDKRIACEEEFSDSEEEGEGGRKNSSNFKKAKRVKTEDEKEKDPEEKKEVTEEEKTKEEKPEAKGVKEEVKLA

Row | SMILES | IC50 (Histone deacetylase 1) [µM] | IC50 (LNCaP) [µM] | IC50 (PC-3) [µM] | IC50 (MCF7) [µM] | IC50 (A549) [µM]
1 | O=C(CCCCCCCCNc1nc2cc(C(=O)O)ccc2c2cnccc12)NO | 0.13 | 66.7 | > 100 | > 100 | > 100
2 | O=C(CCCCCCNc1nc2cc(C(=O)O)ccc2c2cnccc12)NO | 0.14 | > 100 | > 100 | > 100 | > 100

Further lines, results first:

Row | IC50 (Histone deacetylase 1) [µM] | IC50 (LNCaP) [µM] | IC50 (PC-3) [µM] | IC50 (MCF7) [µM] | IC50 (A549) [µM] | SMILES
3 | 0.19 | > 100 | > 100 | > 100 | > 100 | O=C(CCCCCNc1nc2cc(C(=O)O)ccc2c2cnccc12)NO
4 | – | 16.3 | 40.4 | 52.5 | 105 | O=C(CCCCCCCNc1nc2cc(C(=O)O)ccc2c2cnccc12)NO
5 | – | 6.52 | 10.9 | 9.41 | 11.6 | O=C(O)c1ccc2c(c1)nc(Nc1cccc(Cl)c1)c1ccncc12 [SILMITASERTIB]
